The source of these data is article PMC12521730, “Quantitative dual-isotope preclinical SPECT/CT imaging and biodistribution of the mercury-197m/g theranostic pair with [^197m/gHg]HgCl2 and a [^197m/gHg]Hg-tetrathiol complex as a platform for radiopharmaceutical development” (EJNMMI Radiopharmacy and Chemistry, 2025).

A short description of the data set: In vivo SPECT/CT imaging. Details: species or system healthy male C57BL/6 mice. The conditions noted are these: for organs of tracer accumulation (qualitative): 0-2 h post injection. As for the experimental part:
For animal injection, the tracer was prepared at high molar activity. Radiolabeling of H4Tetrathiol (10^–2 M in DMSO; 40 μL for imaging, 20 μL for bioD) (or DMSO, for [^197m/gHg]HgCl2 mice) with [^197m/gHg]HgCl2 (imaging: 26.7 MBq total m + g, 62 μL; bioD: 13.04 MBq total m + g, 31 μL) was performed in a mixture of ammonium acetate buffer (1 M; pH 7; 198 μL for imaging or 149 μL for bioD) and 6 M NaOH (72 μL or 38 μL required to achieve a pH of 7.5 after addition of activity, for imaging or BioD labeling, respectively). The reaction was allowed to stand for 1 h at 37 °C and quantitative (> 99%) non-isolated percentage radiochemical yield (%RCY) was confirmed via the iTLC methods mentioned above. Further, 100 µL of the reaction was diluted with 50 µL of PBS Tween-20 (0.01 M sodium phosphate, 0.15 M NaCl, 0.05% Tween-20) for imaging mice, or 50 µL of the reaction was diluted with 100 µL of PBS Tween-20 for BioD mice. The tracers were prepared immediately before injection to avoid radiolysis and minimize the tracer loss to any surfaces due to its lipophilicity. The injected doses of each isomer, ^197mHg and ^197gHg, were quantified by measuring an aliquot of known volume of each tracer preparation via HPGe gamma spectroscopy and decay corrected for time of injection using the Eqs. (1) and (2).
The study was conducted in compliance with the guidelines set by the Canadian Council on Animal Care (CCAC) and approved by the Animal Care Committee (ACC) at the University of British Columbia (A20-0132). A total of eight healthy male C57BL/6 mice weighing approximately 30 g for group 1 and 25 g for group 2 were used in the study. The mice were divided into two experimental groups: group 1 (n = 4) received free [^197m/gHg]HgCl2, while group 2 (n = 4) received [^197m/gHg]Hg-Tetrathiol. Within each group, one mouse was allocated for imaging, while the rest were designated for ex vivo biodistribution analysis. For SPECT imaging, the designated mice were anesthetized using isoflurane via a precision vaporizer. […] Once anesthetized, each imaging mouse received an intravenous (IV) injection via the lateral tail vein of 150 μL of [^197m/gHg]HgCl2 (0.492 MBq ^197mHg + 3.171 MBq ^197gHg) or [^197m/gHg]Hg-Tetrathiol (0.899 MBq ^197mHg + 4.230 MBq ^197gHg) in PBS Tween-20 (0.01 M Na Phosphate, 0.15 M NaCl, 0.05% Tween-20).
The animals were immediately placed in the scanner and whole-body scans were acquired dynamically during 120 min post-injection (6 frames × 20 min/frame). Throughout the entire scanning procedure, mice were kept under isoflurane anesthesia and body temperature was maintained constant using a heated imaging bed. […] These energy window settings yielded the optimum, and most robust quantification results based on the phantom experiments (vide supra). […]

Each structure is given as a SMILES string. “Also recorded” adds a separate entry of the source.

With `O=C(CC[S-])OCC(COC(=O)CC[S-])(COC(=O)CC[S-])COC(=O)CC[S-].[Hg+2]` [[^197m/gHg]Hg-Tetrathiol], the “organs of tracer accumulation (qualitative)” value (“organs of tracer accumulation” for short) was “predominantly accumulates in the spleen and liver”. Further, the “organs of tracer accumulation” value (listed as [^197m/gHg]Hg-tetrathiol) was “tracer accumulation primarily in the liver and spleen”. In addition, for the setting “compared with [197m/gHg]HgCl2”, the “blood clearance and excretion (qualitative)” value is “faster blood clearance and excretion through the reticuloendothelial system (RES)”.
`[Cl][Hg][Cl]` [[^197m/gHg]HgCl2]: the “organs of tracer accumulation” value is “primarily accumulating in the kidneys; also recorded: strong affinity for the kidneys”.
